Source: US20120230951A1 (priority 2011, published 2012)
Where two headings read alike, the source gives them in different places.

Experiments:
[1] = tested on: GT-1a pRLuc H771b 75 S/I subgenomic replicon cell line; assay: HCV GT-1a replicon luciferase reporter assay; type: cell-based; conditions: Hepatitis C virus, GT1A, 72 h, read-out: GT-1a (IC50) (nM)
How it was run: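 Huh-7-derived subgenomic replicon cells (GT-1b Con1 2209-23, 5000/well; GT-1a H77 chimera with Con1 NS3 first 75 aa, 3000/well) in 5% FBS DMEM; compounds added 24 h post-plating, 3-fold dilutions, 1% DMSO. Renilla luciferase read after 72 h; EC50 is 50% signal reduction versus untreated, non-linear fit.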

[2] = tested on: HCV GT1b replicon (2209-23 cell line, GT-1b Con1 subgenomic replicon in Huh-7); assay: HCV GT1b replicon luciferase reporter assay; type: cell-based; conditions: Hepatitis C virus
Description: Determination of compounds HCV GT1b inhibitory replicon activity using the replicon luciferase reporter assay
The 2209-23 cell line was developed at Roche by stable transfection of the hepatoma cell line Huh-7 with a GT-1b Con1 subgenomic bicistronic replicon as previously described. Subgenomic replicon cell line was established in cured Huh7 cells, obtained from R. Bartenschlager (J. Virol. 2003 March; 77 (5):3007-19) The GT-1a H77 subgenomic replicon vector pRLuc H771b 75 S/I, was created by replacing the non structural region of the GT-1b Con1 subgenomic replicon by the one of the H77 strain, except for the first 75 amino acids of the NS3 protein that are from GT-1b Con1 strain. (J. Virol. 2001 77:5352-59) The GT-1a pRLuc H771b 75 S/I subgenomic replicon cell line was established in cured Huh7 cells, obtained from R. Bartenschlager. (J. Virol. 2003 March; 77 (5):3007-19)
All the subgenomic replicon cell lines were cultured in Dulbecco's Modified Eagle Medium (DMEM-Glutamax™-I; Invitrogen Cat #10569-010). The medium was supplemented with 10% Fetal Bovine Serum (Invitrogen Cat #10082-147), 1% penicillin/streptomycin (Mediatech Cat #30-002-CI) and 500 μg/ml of G418 (Mediatech Cat #30-234-CI). Cells were maintained at 37° C. in a humidified 5% CO2 atmosphere.
2209-23 cells were plated at a cell density of 5000 cells per well in 96 well plates (Becton Dickinson, Cat #35 3296). Cells were plated in 90 μl of Dulbecco's Modified Eagle Medium (DMEM-Glutamax™-I), (Invitrogen Cat #10569-010) medium was supplemented with 5% Fetal Bovine Serum (Invitrogen Cat #10082-147), 1% penicillin/streptomycin (Mediatech Cat #30-002-CI). The pRluc H771b 75 S/I cells were plated in 96-well plate at 3000 cells/well in DMEM-Glutamax™-I containing 5% FBS and 1% penicillin/streptomycin in 90 μl final volume. Cells were allowed to equilibrate for 24 hours at 37° C. and 5% CO2 at which time compounds were added. Compounds (or medium as a control) were added 24 hours post-plating in 3 fold dilutions at a final DMSO concentration of 1% in 10 ul volume. Renilla luciferase reporter signal was read 72 hours after addition of compounds using the Renilla Luciferase Assay System (Promega, cat #E2820). EC50 values were defined as the compound concentration at which a 50% reduction in the levels of renilla luciferase reporter was observed as compared to control samples in the absence of compound and was determined by non-linear fitting of compound dose-response data. The EC50 was approximated if maximum percentage inhibition was less than 90% and more than 70%.

[3] = Huh-7, 2209-23 cells (GT-1b Con1), Renilla luciferase read 72 hours after addition of compounds

Compound	IC50 [1]	other results
COC(=O)N[C@H]1CCc2cccc3c2N(C1=O)[C@H](c1ncc(-c2cnc4cc(-c5ccc(-c6cnc([C@@H]7CC(F)(F)CN7C(=O)[C@@H](NC(=O)OC)C(C)C)[nH]6)cc5)ccc4c2)[nH]1)C3 [Compound I-19, ((2S,5S)-2-{5-[7-(4-{2-[(S)-1-((S)-2-Methoxycarbonylamino-3-methyl-butyryl)-4,4-difluoro-pyrrolidin-2-yl]-3H-imidazol-4-yl}-phenyl)-quinolin-3-yl]-1H-imidazol-2-yl}-4-oxo-1,2,4,5,6,7-hexahydro-azepino[3,2,1-hi]indol-5-yl)-carbamic acid methyl ester trifluroacetic acid]	2.89 nM	IC50 ([2]; Huh-7, 72 h, read-out: GT-1b (IC50) (nM)): 0.16 nM
COC(=O)N[C@H]1CCc2cccc3c2N(C1=O)[C@H](c1nc2ccc(-c4ccc(-c5ccc(-c6cnc([C@@H]7CCCN7C(=O)[C@@H](NC(=O)OC)C(C)C)[nH]6)cc5)cc4)cc2[nH]1)C3 [Compound I-11, {(2S,5S)-2-[6-(4′-{2-[(S)-1-((S)-2-Methoxycarbonylamino-3-methyl-butyryl)-pyrrolidin-2-yl]-3H-imidazol-4-yl}-biphenyl-4-yl)-1H-benzoimidazol-2-yl]-4-oxo-1,2,4,5,6,7-hexahydro-azepino[3,2,1-hi]indol-5-yl}-carbamic methyl ester]	19.2 nM	IC50 ([2]; Huh-7, 2209-23 cells (GT-1b Con1), Renilla luciferase read 72 hours after addition of compounds, read-out: GT-1b (IC50)): 2.82 nM
COC(=O)N[C@H]1CCc2cccc3c2N(C1=O)[C@H](c1nc2ccc(-c4ccc5cc(-c6cnc([C@@H]7CCCN7C(=O)[C@@H](NC(=O)OC)C(C)C)[nH]6)ccc5c4)cc2[nH]1)C3 [Compound I-68]		EC50 [2, 3]: 0.062 nM
COC(=O)N[C@H]1CCc2cccc3c2N(C1=O)[C@H](c1ncc(-c2ccc(-c4ccc(-c5cnc([C@@H]6CCCN6C(=O)[C@@H](NC(=O)OC)C(C)C)[nH]5)cc4)cc2)[nH]1)C3 [Compound I-66, {(2S,5S)-2-[5-(4′-{2-[(S)-1-((S)-2-Methoxycarbonylamino-3-methyl-butyryl)-pyrrolidin-2-yl]-3H-imidazol-4-yl}-biphenyl-4-yl)-1H-imidazol-2-yl]-4-oxo-1,2,4,5,6,7-hexahydro-azepino[3,2,1-hi]indol-5-yl}-carbamic acid methyl ester]		EC50 [2, 3]: 0.036 nM
COC(=O)N[C@H]1CCc2cccc3c2N(C1=O)[C@H](c1ncc(-c2ccc(-c4ccc5cc(-c6cnc([C@@H]7CC(F)(F)CN7C(=O)[C@@H](NC(=O)OC)C(C)C)[nH]6)ccc5c4)cc2)[nH]1)C3 [Compound I-42, {(2S,5S)-2-{5-[4-(6-{2-[(S)-4,4-Difluoro-1-((S)-2-methoxycarbonylamino-3-methyl-butyryl)-pyrrolidin-2-yl]-3H-imidazol-4-yl}-naphthalen-2-yl)-phenyl]-1H-imidazol-2-yl}-4-oxo-1,2,4,5,6,7-hexahydo-azepino[3,2,1-hi]indol-5-yl}-carbamic acid methyl ester]	1.17 nM	
COC(=O)N[C@H]1CCc2cccc3c2N(C1=O)[C@H](c1ncc(-c2ccc(-c4ccc5nc([C@@H]6CCCN6C(=O)[C@@H](NC(=O)OC)C(C)C)[nH]c5c4)cc2)[nH]1)C3 [Compound I-3, {(2S,5S)-2-[5-(4-{2-[(S)-1-((S)-2-Methoxycarbonylamino-3-methyl-butyryl)-pyrrolidin-2-yl]-3H-benzoimidazol-5-yl}-phenyl)-1H-imidazol-2-yl]-4-oxo-1,2,4,5,6,7-hexahydro-azepino[3,2,1-hi]indol-5-yl}-carbamic acid methyl ester]	660 nM	
COC(=O)N[C@@H](C)C(=O)N1CCC[C@H]1c1ncc(-c2ccc(-c3ccc(-c4cnc([C@@H]5Cc6cccc7c6N5C(=O)[C@@H](NC(=O)OC)CC7)[nH]4)cc3)cc2)[nH]1 [Compound I-49, {(2S,5S)-2-[5-(4-{2-[(S)-1-((S)-2-Methoxycarbonylamino-propionyl)-pyrolidin-2-yl]-3H-imidazol-4-yl}-biphenyl-4-yl)-1H-imidazol-2-yl]-4-oxo-1,2,4,5,6,7-hexahydro-azepino[3,2,1-hi]indol-5-yl}-carbamic acid methyl ester]	3.91 nM	
COC(=O)N[C@H]1CCc2cccc3c2N(C1=O)[C@H](c1ncc(-c2ccc(-c4ccc(-c5nnc([C@@H]6CCCN6C(=O)[C@H](NC(=O)OC)c6ccccc6)[nH]5)cc4)cc2)[nH]1)C3 [Compound I-60, {(2S,5S)-2-[5-(4′-{5-[(S)-1-((R)-2-Methoxycarbonylamino-2-phenyl-acetyl)-pyrrolidin-2-yl]-4H-[1,2,4]triazol-3-yl}-biphenyl-4-yl)-1H-imidazol-2-yl]-4-oxo-1,2,4,5,6,7-hexahydro-azepino[3,2,1-hi]indol-5-yl}-carbamic acid methyl ester]	51.4 nM	
COC(=O)N[C@H]1CCc2cccc3c2N(C1=O)[C@H](c1ncc(-c2ccc(-c4ccc(-c5[nH]c([C@@H]6CCCN6C(=O)[C@@H](NC(=O)OC)C(C)C)nc5Cl)cc4)cc2)[nH]1)C3 [Compound I-30, {(2S,5S)-2-[5-(4′-{5-Chloro-2-[(S)-1-((S)-2-methoxycarbonylamino-3-methyl-butyryl)-pyrrolidin-2-yl]-3H-imidazol-4yl}-biphenyl-4-yl)-1H-imidazol-2-yl]-4-oxo-1,2,4,5,6,7-hexahydro-azepino[3,2,1-hi]indol-5-yl}-carbamic acid methyl ester]	1 nM	
COC(=O)N[C@H]1CCc2cccc3c2N(C1=O)[C@H](c1ncc(-c2ccc(-c4ccc(-c5cnc([C@@H]6CCCN6C(=O)[C@@H](NC(=O)OC)C(C)C)[nH]5)cn4)cc2)[nH]1)C3 [Compound I-34, ((2S,5S)-2-{5-[4-(5-{2-[(S)-1-((S)-2-Methoxycarbonylamino-3-methyl-butyryl)-pyrrolidin-2-yl]-3H-imidazol-4-yl}-pyridin-2-yl)-phenyl]-1H-imidazol-2-yl}-4-oxo-1,2,4,5,6,7-hexahydro-azepino[3,2,1-hi]indol-5-yl)-carbamic acid methyl ester]	86.7 nM	
COC(=O)N[C@H]1CCc2cccc3c2N(C1=O)[C@H](c1ncc(-c2ccc(-c4ccc(-c5cnc([C@@H]6CCCN7C(=O)CC[C@H](NC(=O)OC)C(=O)N67)[nH]5)cc4)cc2)[nH]1)C3 [Compound I-67]		EC50 [2, 3]: 0.528 nM
COC(=O)N[C@H]1CCc2cccc3c2N(C1=O)[C@H](c1ncc(-c2ccc(-c4ccc(-c5[nH]c([C@@H]6CC(F)(F)CN6C(=O)[C@@H](NC(=O)OC)C(C)C)nc5Cl)cc4)cc2)[nH]1)C3 [Compound I-32, {(2S,5S)-2-[5-(4′-{5-Chloro-2-[(S)-4,4-difluoro-1-((S)-2-methoxycarbonylamino-3-methyl-butyryl)-pyrrolidin-2-yl]-3H-imidazol-4yl}-biphenyl-4-yl)-1H-imidazol-2-yl]-4-oxo-1,2,4,5,6,7-hexahydro-azepino[3,2,1-hi]indol-5-yl}-carbamic acid methyl ester]	5.78 nM	
COC(=O)N[C@H]1CCc2cccc3c2N(C1=O)[C@H](c1nc2ccc(-c4ccc(-c5ccc(-c6cnc([C@@H]7CC(F)(F)CN7C(=O)[C@@H](NC(=O)OC)C(C)C)[nH]6)cc5)nc4)cc2[nH]1)C3 [Compound I-13, ((2S,5S)-2-{6-[6-(4-{2-[(S)-1-((S)-2-Methoxycarbonylamino-3-methyl-butyryl)-4,4-difluoro-pyrrolidin-2-yl]-3H-imidazol-4-yl}-phenyl)-pyridin-3-yl]-1H-benzoimidazol-2-yl}-4-oxo-1,2,4,5,6,7-hexahydro-azepino[3,2,1-hi]indol-5-yl)-carbamic acid methyl ester]	41.8 nM	
